Earlier results in patent US8039631B2, “Process for preparing crystalline form A of Lansoprazole” (Daewoong Pharmaceutical Co., Ltd., priority 2006, dated 2011).
Where two headings read alike, the source gives them in different places.

How the values were obtained:
[1] = not given; remark: listed apart in the source

Row | SMILES | stability (change) when stored (stored for one year at room temperature or elevated temperature) | conversion of Form B to Form A ([1]; at 40° C.) | conversion of Form B to Form A ([1]; at a temperature of 10° C. or lower) | change in the crystalline form on storage (at elevated temperature) | stability when stored (stored for one year at a low temperature (0° C. or lower))
1 | Cc1c(OCC(F)(F)F)ccnc1C[S+]([O-])c1nc2ccccc2[nH]1 (centres unmarked) [Form A, Lansoprazole] | does not change | – | – | – | –
2 | Cc1c(OCC(F)(F)F)ccnc1C[S+]([O-])c1nc2ccccc2[nH]1 (centres unmarked) [Form B, Lansoprazole] | – | rapidly | slowly converted to Form A | some change in the crystalline form | high stability
